# Measured values published in publication PMC3519854, “High Yield Production and Refolding of the Double-Knot Toxin, an Activator of TRPV1 Channels” (PLoS ONE, 2012).
# Positions of bridges follow the written chain, without caps; N, C: chain ends. Residues, ends and D or L forms follow the SMILES beside them.
# Legend:
# A657P mutant of TRPV1 [1] = conditions: cited from earlier work
# From the text: (§1) The functional activities of DkTx, K1 and K2 were also compared by recording their electrophysiological effects on TRPV1-expressing cells.
# rat TRPV1 = molecular target: T1, rat TRPV1 (Rattus norvegicus, UniProt O35433); assay: Two-electrode voltage clamp recording of TRPV1 activation in oocytes; format: cell-based; conditions: for Relative potency as TRPV1 agonist: comparison of DkTx, K1 and K2, concentration-dependence in oocytes; for Hill coefficient for activation of TRPV1 / Activation of TRPV1 channels (evoked currents) / Reversibility of TRPV1 activation after removal of the toxin: rat TRPV1 in Xenopus oocytes; for Hill coefficient for activation of TRPV1: concentration-dependence; for Activation of TRPV1 channels (evoked currents): holding voltage −60 mV, DkTx applied at 1 µM
# T1 construct: expressed in transfected cells; host or cells: Xenopus laevis oocytes injected with cRNA (pGEM-HE vector)
# T1 sequence (O35433 whole entry): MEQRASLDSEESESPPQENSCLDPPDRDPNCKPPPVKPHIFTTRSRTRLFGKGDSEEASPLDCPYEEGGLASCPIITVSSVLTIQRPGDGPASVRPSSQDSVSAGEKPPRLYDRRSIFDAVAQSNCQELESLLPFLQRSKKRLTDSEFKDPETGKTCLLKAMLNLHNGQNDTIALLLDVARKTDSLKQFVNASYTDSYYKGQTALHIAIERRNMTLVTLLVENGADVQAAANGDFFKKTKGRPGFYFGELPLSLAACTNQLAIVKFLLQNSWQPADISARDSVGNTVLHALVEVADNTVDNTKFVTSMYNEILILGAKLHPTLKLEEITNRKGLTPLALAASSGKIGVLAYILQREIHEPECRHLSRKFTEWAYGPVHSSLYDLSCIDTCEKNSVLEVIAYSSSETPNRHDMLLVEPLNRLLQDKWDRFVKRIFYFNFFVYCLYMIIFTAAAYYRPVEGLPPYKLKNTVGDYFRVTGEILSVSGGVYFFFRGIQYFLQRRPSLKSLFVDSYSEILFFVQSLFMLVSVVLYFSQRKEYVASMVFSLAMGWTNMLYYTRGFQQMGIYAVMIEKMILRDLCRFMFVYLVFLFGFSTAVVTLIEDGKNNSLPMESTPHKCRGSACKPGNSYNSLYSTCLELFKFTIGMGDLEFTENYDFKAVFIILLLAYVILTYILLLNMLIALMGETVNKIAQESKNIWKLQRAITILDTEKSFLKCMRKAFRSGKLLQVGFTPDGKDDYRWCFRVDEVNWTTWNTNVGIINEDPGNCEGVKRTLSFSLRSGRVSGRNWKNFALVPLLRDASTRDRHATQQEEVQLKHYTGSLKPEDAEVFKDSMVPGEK
# Description: (§2) Oocytes were surgically removed from anesthetized Xenopus laevis frogs in accordance with protocol 1253-12 approved by the National Institute of Neurological Disorders and Stroke Animal Care and Use Committee. Oocytes were gently shaken for 60 min in a solution of 82.5 mM NaCl, 2.5 mM KCl, 1 mM MgCl2, 5 mM HEPES and 2 mg/mL collagenase. A rat TRPV1 construct (generously provided by D. Julius, UCSF) was cloned into the pGEM-HE vector, and used to generate cRNA. The cRNA was then injected into oocytes, which were then incubated for 1–3 days at 17°C in ND-96 solution (96 mM NaCl, 2 mM KCl, 5 mM HEPES, 1 mM MgCl2 and 50 µg/mL gentamycin, titrated to pH 7.6 with NaOH). TRPV1 activity was recorded under voltage clamp using a two-electrode voltage clamp (OC-725C; Warner Instruments) in a 150-µL recording chamber. The recorded data were filtered at 1 kHz and digitized at 5 kHz using a digidata analog/digital converter and pClamp software (Molecular Devices). Microelectrode resistances were 0.1–1 MΩ when filled with 3 M KCl. The external recording solution contained 115 mM NaCl, 2.5 mM KCl, 1.5 mM MgCl2 and 10 mM HEPES, titrated to pH 7.4 with NaOH. All experiments were performed at room temperature (∼22°C).
# Figure 6 Activity of K1, K2 and DkTx on TRPV1 channels. (A) Synthetic K1, K2 and DkTx activate TRPV1 channels. Oocytes were held at −60 mV and toxins were added to the recording chamber. (B) Concentration-dependence for activation of TRPV1 by the toxins.
# as §1
# [2] = Relative hydrophobicity by RP-HPLC elution of folded versus linear toxin; format: physicochemical; conditions: RP-HPLC C18, acetonitrile/water gradient with 0.1% TFA, qualitative
# Description: Figure 3 Purification and activity of the DkTx folding product. (A) Purification of linear DkTx. Cleavage of the fusion protein and reduction of the disulfide bond were accomplished using hydroxylamine and DTT, respectively, as described in methods. (B) Linear DkTx was folded in 1 M NH4OAc (pH 8.0) buffer containing 1 M GdnHCl, 1 mM EDTA, 2.5 mM GSH and 0.25 mM GSSG for 5 days at 4°C. The toxins were purified using a linear gradient of 29–44% solvent B for 15 min at a flow rate of 14 ml/min, where solvent A was water containing 0.1% TFA and solvent B was acetonitrile containing 0.1% TFA. (C) Fraction 5 activated TRPV1 expressed in oocytes. Holding voltage was −60 mV.
# Figure 4 HPLC profiles of DkTx during the folding reaction. The peptides were separated using a linear gradient of 5–65% solvent B for 30 min at a flow rate of 1 ml/min, where solvent A was water containing 0.1% TFA and solvent B was acetonitrile containing 0.1% TFA. (A) Oxidative folding of DkTx in redox buffer was monitored by HPLC. Asterisks indicate correctly folded DkTx. (B) HPLC chromatogram of purified DkTx. Dashed and solid arrows indicate the minor and major forms of DkTx, respectively. […]
# Figure 5 Folding kinetics of K1, K2 and DkTx. […] Quantification of the folding specifies was accomplished using HPLC. The correctly folded form (%) was determined based on the areas of the HPLC peaks. […]
# A657P mutant of TRPV1 [3] = assay: Two-electrode voltage clamp recording on the A657P mutant of TRPV1; format: cell-based; conditions: data not shown
# Description: as §2, §1
Compound,Sensitivity of the A657P mutant of TRPV1 to toxin (A657P mutant of TRPV1 [1]),Relative potency as TRPV1 agonist (rat TRPV1),Hill coefficient for activation of TRPV1 (rat TRPV1),Activation of TRPV1 channels (evoked currents) (rat TRPV1),Activation of TRPV1 channels (evoked currents) (rat TRPV1; listed as fraction 5),Reversibility of TRPV1 activation after removal of the toxin (rat TRPV1; −60 mV),Hydrophobicity of the correctly folded form relative to the linear form [2],"Block of DkTx-evoked TRPV1 currents (rat TRPV1; currents evoked by 1 µM DkTx in oocytes, −60 mV)",Activation of the A657P mutant of TRPV1 (A657P mutant of TRPV1 [3])
"GDCAKEGEVCSWGKKCCDLDNFYCPMEFIPHCKKYKPYVPVTTNCAKEGEVCGWGSKCCHGLDCPLAFIPYCEKYR (disulfide 3-17, 10-24, 16-32, 45-59, 52-64, 58-72 (inferred)) [DkTx, double-knot toxin]",insensitive,most potent TRPV1 agonist among the three toxins,~1,evoked large currents,robustly activated TRPV1 channels,decayed slowly,more hydrophobic than the linear form,,
"N.N.N.N.N.N.N.N.N.N.N.N.N.N.[Cl-].[Cl-].[Cl-].[Cl-].[Cl-].[Cl-].[O-2].[O-2].[Ru+3].[Ru+3].[Ru+4] [ruthenium red, reference compound]",,,,,,,,blocked,
"CC[C@H](C)[C@@H]1NC(=O)[C@H](Cc2ccccc2)NC(=O)[C@H](C)NC(=O)[C@H](CC(C)C)NC(=O)[C@@H]2CCCN2C(=O)[C@@H]2CSSC[C@@H]3NC(=O)[C@H](C(C)C)NC(=O)[C@H](CCC(=O)O)NC(=O)CNC(=O)[C@H](CCC(=O)O)NC(=O)[C@H](CCCCN)NC(=O)[C@H](C)NC(=O)[C@@H](NC(=O)[C@@H](N)CC(N)=O)CSSC[C@H](NC(=O)[C@H](CSSC[C@@H](C(=O)N[C@@H](CCC(=O)O)C(=O)N[C@@H](CCCCN)C(=O)N[C@@H](Cc4ccc(O)cc4)C(=O)N[C@@H](CCCNC(=N)N)C(=O)O)NC(=O)[C@H](Cc4ccc(O)cc4)NC(=O)[C@@H]4CCCN4C1=O)NC(=O)[C@H](CCCCN)NC(=O)[C@H](CO)NC(=O)CNC(=O)[C@H](Cc1c[nH]c4ccccc14)NC(=O)CNC3=O)C(=O)N[C@@H](Cc1c[nH]cn1)C(=O)NCC(=O)N[C@@H](CC(C)C)C(=O)N[C@@H](CC(=O)O)C(=O)N2 [K2] (H-NCAKEGEVCGWGSKCCHGLDCPLAFIPYCEKYR-OH; disulfide 2-16, 9-21, 15-29 (inferred); N-terminus and C-terminus assumed)",,more active than K1,about 4,,,readily reversible,more hydrophobic than the linear or misfolded forms,,neither toxin activated the channel
